“Also recorded” adds a separate entry of the source.

The subject of data set [1] is Salmonella typhimurium strains TA98, TA100, TA1535 and TA1537. Kind of data set: Enhanced Ames Test (EAT), pre-incubation method, Salmonella strains. The data set is classed as cell-based. The method, then:
N-(3-(6-amino-5-(2(methyl)(nitroso)amino)ethoxy)pyrimidin-4-yl)-5-fluoro-2-methylphenyl)-4-cyclopropyl-2-fluorobenzamide was evaluated in the EAT performed under GLP following the EMA and FDA guidance (2023) for the EAT conditions for N-nitrosamines.
In this study N-(3-(6-amino-5-(2(methyl)(nitroso)amino)ethoxy)pyrimidin-4-yl)-5-fluoro-2-methylphenyl)-4-cyclopropyl-2-fluorobenzamide was evaluated for mutations in Salmonella typhimurium strains TA98, TA100, TA1535 and TA1537 and Escherichia coli strain WP2 uvrA pKM101, both in the absence and presence of 30% rat and hamster metabolic activation (β-naphthoflavone/phenobarbital-induced rat and hamster liver post-mitochondrial S-9 fraction). The test used pre-incubation method (30 minutes). N-(3-(6-amino-5-(2(methyl)(nitroso)amino)ethoxy)pyrimidin-4-yl)-5-fluoro-2-methylphenyl)-4-cyclopropyl-2-fluorobenzamide was formulated in dimethyl sulfoxide (DMSO) at concentrations of 5, 16, 50, 160, 500, 1600 and 5000 μg/plate.

Data set [2] in a line: Accelerated predictive stability (APS) of LOU064 drug substance, open dish. In kind it is physicochemical. To be noted: all APS open dish conditions. As to the method:
In order to assess the stability behavior of the nitrosamine impurity (N-(3-(6-amino-5-(2(methyl)(nitroso)amino)ethoxy)pyrimidin-4-yl)-5-fluoro-2-methylphenyl)-4-cyclopropyl-2-fluorobenzamide) in LOU064 drug substance, an accelerated predictive stability (APS) was performed.
A statistical based approach, Accelerated Predictive Stability (APS), using the humidity modified Arrhenius equation [Waterman and al., International Journal of Pharmaceutics 293 (1-2), 101-125 (2005)] is applied to understand stability behavior and predict the retest period. […] Short studies are conducted on open dish samples of representative batch (es) of drug substance at accelerated conditions using a wide range of temperatures and humidity with the goal of reaching the specification limit for the identified retest period limiting attributes at each condition as detailed below. […] The humidity corrected Arrhenius equation reflects both the influence of the temperature, and the moisture on the kinetics of the degradation product formation. The resulting open-dish data are fitted to a humidity-corrected Arrhenius equation^1 using ASAPprime® (current version 6.0): […]
3 batches of LOU064 drug substance were placed in open dish under the protocol summarized below:
(§1) The pulled samples were analyzed by HPLC-MS as per method described in example 1 and reported below in tables 9 and 10.

A short description of data set [3]: APS of LOU064 drug substance, closed container with or without nitrogen purge. To be noted: 60-80 °C, up to 27 days. In kind it is physicochemical. As to the method: Samples of batches of LOU064 drug substance were prepared in duplicated in closed container, with one sample being purged with nitrogen and the other not.
as §1

Data set [4] can be described thus: Stability of intermediate F8: nitrosamine content overtime (air exposure, storage). In kind it is physicochemical. To be noted: upon exposure to the air or upon storage.
Experimental: • Limit-test by LC-MS (SIM mode), AJS-ES, positive mode, SIM Ion: 483.2 [M+H]+ • Column: YMC-Triart C18, 100×3.0 mm, particle size 1.9 μm, 12 nm • Mobile phase A: Dissolve 0.315 g of Ammonium formate in 1000 mL of water, add 0.5 mL of formic acid • Mobile phase B: Methanol • Sample solvent: Methanol+0.2% (v/v) Formic acid • Sample solution: approx. 100 mg of the sample in 20 mL • Flow: 0.6 mL/min • Injection volume: 3 μL • Autosampler cooled, 8° C. • Column temperature. 80° C.
Same method was used to determine the level of nitrosamine content in intermediate F8, in salts or in solvate of LOU064.
The content of nitrosamine in intermediate F8 was determined using method described in Example 1.

Turning to `CCN(CC)N=O` [NDEA, N-nitrosodiethylamine, reference compound], the induced mutations in data set [1] (strain TA100, presence of 30% rat S-9) is above 2 fold.

For the compound `C=CC(=O)N(C)CCOc1c(N)ncnc1-c1cc(F)cc(NC(=O)c2ccc(C3CC3)cc2F)c1C` [LOU064 drug substance, N-(3-(6-Amino-5-(2-(N-methylacrylamido)ethoxy)pyrimidin-4-yl)-5-fluoro-2-methylphenyl)-4-cyclopropyl-2-fluorobenzamide], the “stability behavior of the nitrosamine impurity (in words)” value in data set [2] is on record as “stable”. Further, the “nitrosamine, stored closed under nitrogen versus closed without nitrogen (in words)” value in data set [3] is “no difference observed beyond analytical variability”.

As to `CN(CCc1ccccc1)N=O` [MNPA, N-methyl-N-nitroso-(2-phenylethyl)amine, reference compound], the “Increases (mutations)” value in data set [1] (strain TA98, presence of hamster S-9) was “up to 1.9”.

`CNCCOc1c(N)ncnc1-c1cc(F)cc(NC(=O)c2ccc(C3CC3)cc2F)c1C` [F8]: the “content of nitrosamine in intermediate F8 (trend)” value in data set [4] was “increased overtime”.

Turning to `Cc1c(NC(=O)c2ccc(C3CC3)cc2F)cc(F)cc1-c1ncnc(N)c1OCCN(C)N=O` [N-(3-(6-amino-5-(2(methyl)(nitroso)amino)ethoxy)pyrimidin-4-yl)-5-fluoro-2-methylphenyl)-4-cyclopropyl-2-fluorobenzamide], the mutagenicity entry in data set [1] (in the presence of rat S-9) and in data set [1] (without metabolic activation) was “not mutagenic” each time. The “Enhanced Ames Test (EAT) outcome” value in data set [1] (overall conclusion of the EAT) is listed as “positive; also recorded: mutagenic under sensitive metabolic conditions”. For the same compound, the “increases in revertant numbers” value is recorded as 2 fold in data set [1] (strain TA100, presence of hamster S-9) and 3 fold in data set [1] (strain TA1535, presence of hamster S-9).

The record behind these values is US20250304538A1, “PROCESS OF PREPARING REMIBRUTINIB SUBSTANTIALLY FREE OF NITROSAMINE IMPURITY” (NOVARTIS AG, priority 2024, published 2025).
